Laboratory results: US5294724A, “4-hydroxytetrahydropyran-2-ones and the corresponding dihydroxycarboxylic acid derivatives, salts and esters and a process for their preparation” (priority 1989, dated 1994)
Structures can show the parent of a compound that is named as a salt. Where two headings read alike, the source gives them in different places. Blank lines part the entries; values can stand above or below the compound they belong to.

How the values were obtained:
[1] = tested on: HEP G2 cells; assay: Inhibition of cholesterol biosynthesis in cell cultures (HEP G2 cells), incorporation of 14C-sodium acetate in cholesterol; format: cell-based; details: for IC50 / IC70: Homo sapiens; for Relative potency in %: from IC50
Experimental: 2) Inhibition of cholesterol biosynthesis in cell cultures (EEP G2 cells)
Determination of the inhibition of the incorporation of ^14 C-sodium acetate in cholesterol
Monolayers of HEP G2 cells in lipoprotein-free medium were preincubated with various concentrations of the sodium salts of the dihydroxycarboxylic acids of the formula II for 1 hour. After adding ^14 C-labeled sodium acetate, the incubation was continued for 3 hours. Tritium-labeled cholesterol was added as an internal standard and an aliquot of the cells was subjected to alkaline hydrolysis. The lipids were extracted using chloroform/methanol 2: 1. After adding carrier cholesterol, the lipid mixture was preparatively separated on TLC plates using chloroform/acetone 9: 1. The cholesterol zone was made visible by staining with iodine vapor, additionally detected using a TLC radio scanner and then scraped off. The amount of ^14 C-cholesterol formed was determined scintigraphically and related to mg of cell protein. The same procedure was carried out with cells from the Bame culture without preincubation with a test compound (so-called "solvent control"). The potency of the test compounds was determined by comparison of the biosynthesized ^14 C-cholesterol in test runs and in "solvent control".

[2] = tested on: serum total cholesterol; assay: Hypocholesterolemic activity in rabbits after p.o. administration; format: in vivo, male white New Zealand rabbits; details: rabbit p.o.
Experimental: 4) Hypocholesterolemic activity in rabbits after p.o. administration
Normolipemic male white New Zealand rabbits, body weight 3-3.5 kg, were divided into groups of 5 animals. The groups in each case received one of the test compounds (sodium salts of the compounds of the formula II), suspended in 1% aqueous methylcellulose (®Tylose MH 300), 5.10 or 20 mg/kg/day daily in the morning by stomach tube. The animals of the control groups received only Tylose MH 300. Every 3-4 days samples of venous blood were taken from all animals 20 hours after the oral administration. The serum total cholesterol was determined enzymatically in these samples using the test combination of Boehringer Mannheim (CHOD-PAP high performance method). The serum cholesterol level of the treated animals was compared with that of the control groups. A "discharge phase" followed the 20-day "treatment phase", in which the change in the serum cholesterol level was further monitored.

[3] = target: T1, HMG-CoA reductase (Rattus norvegicus, UniProt P51639); assay: Inhibition of HMG-CoA reductase activity in solubilized enzyme preparations from rat liver microsomes; format: biochemical; details: sodium salts of the dihydroxycarboxylic acids; mean of 3 parallel samples; read-out: IC50 (molar concentration necessary for a 50% inhibition)
T1 construct: solubilized enzyme preparations from liver microsomes of rats; from tissue; host or cells: rat liver microsomes (cholestyramine-induced rats), solubilized
T1 sequence (P51639 1-887): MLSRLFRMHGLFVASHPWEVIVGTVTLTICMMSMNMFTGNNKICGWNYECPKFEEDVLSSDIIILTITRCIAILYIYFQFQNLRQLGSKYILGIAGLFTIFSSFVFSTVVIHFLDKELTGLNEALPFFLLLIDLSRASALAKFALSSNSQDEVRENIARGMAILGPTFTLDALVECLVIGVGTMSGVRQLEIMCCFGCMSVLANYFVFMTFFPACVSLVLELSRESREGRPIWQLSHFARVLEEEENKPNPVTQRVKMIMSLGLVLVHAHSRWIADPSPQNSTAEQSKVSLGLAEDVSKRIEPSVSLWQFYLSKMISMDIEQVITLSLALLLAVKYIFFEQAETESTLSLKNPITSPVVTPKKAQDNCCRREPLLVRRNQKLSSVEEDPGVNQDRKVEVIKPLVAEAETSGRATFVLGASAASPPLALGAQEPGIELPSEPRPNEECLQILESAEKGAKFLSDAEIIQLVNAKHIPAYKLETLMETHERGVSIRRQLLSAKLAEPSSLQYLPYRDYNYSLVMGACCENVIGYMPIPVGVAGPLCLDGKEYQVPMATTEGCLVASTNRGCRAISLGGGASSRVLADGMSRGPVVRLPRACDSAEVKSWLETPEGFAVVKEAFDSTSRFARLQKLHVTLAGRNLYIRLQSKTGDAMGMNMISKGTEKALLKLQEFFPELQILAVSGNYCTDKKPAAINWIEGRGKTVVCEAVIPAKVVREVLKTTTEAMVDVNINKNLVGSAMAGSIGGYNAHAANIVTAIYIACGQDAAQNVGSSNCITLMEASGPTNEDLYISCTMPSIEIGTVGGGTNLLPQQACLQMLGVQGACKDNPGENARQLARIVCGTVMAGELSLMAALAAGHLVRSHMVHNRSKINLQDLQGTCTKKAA
Experimental: 1) Inhibition of HKG-CoA reductase activity in solubilized enzyme preparations from rat liver microsomes
HMG-CoA reductase activity was measured on solubilized enzyme preparations from liver microsomes of rats which had been induced by conversion into the day/night rhythm using cholestyramine (®Cuemid). (S,R)^14 C-HMG-CoA was used as a substrate, and the concentration of NADPH was maintained during the incubation by a regenerating system. The separation of ^14 C-mevalonate from substrate and other products (for example ^14 C-HMG) was carried out by column elution, the elution profile of each individual sample being determined. The regular addition of ^3 H-mevalonate was avoided as the determination gives the data relative to the inhibitory action. The enzyme-free control, the enzyme-containing normal mixture (=100%) and those containing preparation additives were in each case treated together in one series of experiments. The sodium salts of the dihydroxycarboxylic acids of the formula II were always employed as the preparation in this test. Each individual value was formed as the mean value of 3 parallel samples. The significance of the mean value differences between preparation-free and preparation-containing samples was evaluated by the t-test.

[4] = tested on: microsomal lipid peroxidation; assay: Inhibition of microsomal lipid peroxidation (in vitro); format: biochemical; details: for IC50: microsomes, read-out: IC50 (50% inhibition of lipid peroxidation)
Experimental: 5) Inhibition of microsomal lipid peroxidation (in vitro)
The inhibition of lipid peroxidation was measured under the experimental conditions described by H. Wafers and H. Sies, Eur. J. Biochem. 174, 353-357 (1988). The microsomes were obtained according to the literature cited therein. IC50 denotes the concentration of the test compound in moles per liter which causes a 50% inhibition of lipid peroxidation.

[5] = tested on: serum lipoproteins; assay: Action on serum lipoproteins and other metabolic parameters of male rats in the subchronic test; format: in vivo; details: rat
Experimental: 3) Action on serum lipoproteins and other metabolic parameters of male rats in the subchronic test
Groups of male rats of the strain HOE: WISKf (SPF 71) having a starting weight of above 180 g received the test preparations daily in the morning (sodium salts of the dihydroxycarboxylic acids of the formula II) in polyethylene glycol 400 by stomach tube; the respective control group received only the vehicle. The last (7th) administration was carried out 24 hours before taking blood and sacrificing. There was free access to food and water during the experiment. 24 hours before taking blood, which wall carried out retroorbitally under slight ether anesthesia before and after the treatment period (i.e. on the 1st and 8th day), the food was withdrawn. Total cholesterol was determined in the serum of each individual animal [CHODPAP high performance method of Boehringer Mannheim], and, as a measure of the triglycerides, total glycerol was also determined analytically from the serum pool of all the animals of one group [GPO-PAP high performance method, Boehringer Mannheim].
Immediately after taking blood, the animals were sacrificed by dislocation of the spine, and the relative liver weight, the change in body weight and the food consumption were determined.
For the analysis of the serum lipoproteins, the serum of all the rats of one group was pooled. The serum lipoproteins were separated using the preparative ultracentrifuge.
The following conditions were used for the separation of the fractions VLDL, LDL and HDL:
The determination of the protein was carried out by the method of Lowry et al. [LOWRY O. H., ROSEBOROUGH, N.J., PARR, A. L. and RANDELL, R. J.: J. Biol. Chem. 193, 265 (1951)].

[6] = 10 mg then 20 mg/kg per day, discharge phase 3
[7] = 10 mg then 20 mg/kg per day, discharge phase 6
[8] = 10 mg then 20 mg/kg per day, discharge phase 11
[9] = 10 mg then 20 mg/kg per day, discharge phase 22
[10] = 10 mg/kg per day (up to 10th day), administration 3
[11] = 10 mg/kg per day (up to 10th day), administration 10
[12] = 20 mg/kg per day (from 11th day), administration 14
[13] = 20 mg/kg per day (from 11th day), administration 17
[14] = 20 mg/kg per day (from 11th day), administration 20
[15] = HepG2, sodium salts, test compounds corrected by deviation of mevinolin sodium from its mean value, read-out: IC50 (concentration necessary for a 50% inhibition)
[16] = 100 mg/kg daily by stomach tube, 7 administrations

Structure (SMILES): CC(C)c1cc(-c2ccc(F)cc2)c(OC[C@@H](O)C[C@@H](O)CC(=O)[O-])c(C(C)C)c1.[Na+] [Compound C, 3(R),5(S)-dihydroxy-6[-2-(4-fluorophenyl)-4,6-diisopropylphenoxy]hexanoicacid sodium salt]
IC50 ([1]; HepG2, read-out: IC50 (concentration necessary for a 50% inhibition)): 0.027 µM
IC70 ([1]; HepG2, read-out: IC70 (concentration necessary for a 70% inhibition)): 0.07 µM
Relative potency in % ([1]; mevinolin sodium = 100): 185%
Relative potency in % (value in parentheses) ([1]; mevinolin sodium = 100, in parentheses, corresponds to IC70): 214%
Serum total cholesterol, % change compared to control group [2, 6]: -13%
Serum total cholesterol, % change compared to control group [2, 7]: -23%
Serum total cholesterol, % change compared to control group [2, 8]: -16%
Serum total cholesterol, % change compared to control group [2, 9]: +18%
Serum total cholesterol, % change compared to control group [2, 10]: +7%
Serum total cholesterol, % change compared to control group [2, 11]: -32%
Serum total cholesterol, % change compared to control group [2, 12]: -31%
Serum total cholesterol, % change compared to control group [2, 13]: -37%
Serum total cholesterol, % change compared to control group [2, 14]: -36%

IC50 [3]: 0.004 µM
IC50 [1, 15]: 0.0038 µM
Structure (SMILES): Cc1cc(-c2cc(Sc3ccc(F)cc3)cc(C(C)C)c2OC[C@@H](O)C[C@@H](O)CC(=O)O)ccc1F [Example 3]
Relative potency in % ([1]; mevinolin sodium = 100): 1316%

IC50 [4]: 1.6 µM
Structure (SMILES): CC(C)c1c(O)c(C(C)C)c(C(C)C)c(O)c1-c1ccc(F)cc1 [Process Example 22, 2-(p-Fluorophenyl)-3,5,6-triisopropyl-1,4-hydroquinone]
Inhibition at 10^-5 mol/l [4]: 99%

Structure (SMILES): CC(=O)Oc1c(-c2ccc(F)cc2)c(C(C)C)c(O)c(C(C)C)c1C(C)C [Process Example 23, 2,5,6-Triisopropyl-3-(p-fluorophenyl)-4-acetoxyphenol]
Inhibition at 10^-5 mol/l [4]: 98%
IC50 [4]: 2.8 µM

IC50 [4]: 4.4 µM
Structure (SMILES): CC(C)c1cc(S)cc(-c2ccc(F)cc2)c1O [Process Example 4, 2-(P-Fluorophenyl)-4-mercapto-6-isopropylphenol]
Inhibition at 10^-5 mol/l [4]: 90%

IC50 [1, 15]: 0.05 µM
Structure (SMILES): CC[C@H](C)C(=O)O[C@H]1C[C@@H](C)C=C2C=C[C@H](C)[C@H](CC[C@@H](O)C[C@@H](O)CC(=O)O)[C@H]21 [mevinolin sodium salt, reference compound]
IC70 ([1]; HepG2, sodium salts, test compounds corrected by deviation of mevinolin sodium from its mean value, read-out: IC70 (concentration necessary for a 70% inhibition)): 0.15 µM
IC70 (concentration necessary for a 70% inhibition) ([1]; sodium salts, test compounds corrected by deviation of mevinolin sodium from its mean value): 0.15 µM

IC50 [4]: 1.5 µM
Structure (SMILES): Oc1c(-c2ccc(F)cc2)cc(Sc2ccc(F)cc2)cc1C1CC1 [Process Example 12, 2-(p-Fluorophenyl)-4-(p-fluorophenylthio)-6-cyclopropylphenol]
Inhibition at 10^-5 mol/l [4]: 99%

Structure (SMILES): CC[C@H](C)C(=O)O[C@H]1C[C@@H](C)C=C2C=C[C@H](C)[C@H](CC[C@@H]3C[C@@H](O)CC(=O)O3)[C@H]21 [Mevinolin]
Serum total cholesterol, % change compared to control group [2, 6]: +14%
Serum total cholesterol, % change compared to control group [2, 7]: -1%
Serum total cholesterol, % change compared to control group [2, 8]: +2%
Serum total cholesterol, % change compared to control group [2, 9]: 0%
Serum total cholesterol, % change compared to control group [2, 10]: -12%
Serum total cholesterol, % change compared to control group [2, 11]: -30%
Serum total cholesterol, % change compared to control group [2, 12]: -27%
Serum total cholesterol, % change compared to control group [2, 13]: -24%
Serum total cholesterol, % change compared to control group [2, 14]: -26%

Structure (SMILES): CC(C)Sc1cc(-c2ccc(F)cc2)c(O)c(C(C)C)c1 [Process Example 8, 2-(p-Fluorophenyl)-4-(isopropylthio)-6-isopropylphenol]
Inhibition at 10^-5 mol/l [4]: 1%

Food consumption, % changes in the mean value relative to control [5, 16]: +1%
Liver weight, % changes in the mean value relative to control [5, 16]: +15%
Structure (SMILES): CCOC(=O)C(C)(C)Oc1ccc(Cl)cc1 [clofibrate, reference compound]
Body weight, % changes in the mean value relative to starting [5, 16]: +8%
Glycerol VLDL, % change compared to control [5, 16]: +4%
Protein LDL, % change compared to control [5, 16]: -9%
Protein VLDL, % change compared to control [5, 16]: -16%
Total cholesterol HDL, % change compared to control [5, 16]: -29%
Total cholesterol LDL, % change compared to control [5, 16]: -19%
Total cholesterol VLDL, % change compared to control [5, 16]: -40%
Cholesterol HDL/LDL ([5]; 100 mg/kg daily, control standardization to 1.00): 0.88

Structure (SMILES): CC(C)c1cc(SC(C)(C)Sc2cc(-c3ccc(F)cc3)c(O)c(C(C)C)c2)cc(-c2ccc(F)cc2)c1O [Process Example 5, 4,4-(Isopropylidenedithio)-bis-[(2-isopropyl-6-p-fluorophenyl)phenol]]
Inhibition at 10^-5 mol/l [4]: 11%

IC50 [4]: 4 µM
Structure (SMILES): CC(C)c1cc(Sc2ccccc2)cc(-c2ccc(F)cc2)c1O [Process Example 7, 2-(p-Fluorophenyl)-4-(phenylthio)-6-isopropylphenol]
Inhibition at 10^-5 mol/l [4]: 92%
